According to patent EP0637237B1, “CALCIUM RECEPTOR-ACTIVE MOLECULES” (BRIGHAM AND WOMEN'S HOSPITAL, INC., priority 1993, dated 1994):
Read-outs that look alike come from different tables or passages of the source.

Experiments:
[1] = target: osteoclast Ca^2+ receptor; test: [Ca2+]i (indo-1) in single rat osteoclasts; format: cell-based; conditions: for increase in [Ca2+]i in osteoclasts: screening, small responses were detected
[2] = Net positive charge of the molecule; format: physicochemical; conditions: Table 1; effective charge at physiological pH
Ca^2+ receptor = target: T1, Ca^2+ receptor (Homo sapiens, UniProt P41180); test: Cl- current in Xenopus oocytes injected with human parathyroid poly(A)+ mRNA; format: cell-based; conditions: hexacyclen 135 µM, neomycin 100 µM, NPS 382 5 mM
T1 construct: Oocytes were injected with poly(A)^+-enriched mRNA from human parathyroid tissue (hyperplastic glands from a case of secondary HPT); expressed in transfected cells; host or cells: Xenopus laevis oocytes injected with poly(A)+ mRNA from hyperplastic human parathyroid glands
T1 sequence (P41180 20-1078): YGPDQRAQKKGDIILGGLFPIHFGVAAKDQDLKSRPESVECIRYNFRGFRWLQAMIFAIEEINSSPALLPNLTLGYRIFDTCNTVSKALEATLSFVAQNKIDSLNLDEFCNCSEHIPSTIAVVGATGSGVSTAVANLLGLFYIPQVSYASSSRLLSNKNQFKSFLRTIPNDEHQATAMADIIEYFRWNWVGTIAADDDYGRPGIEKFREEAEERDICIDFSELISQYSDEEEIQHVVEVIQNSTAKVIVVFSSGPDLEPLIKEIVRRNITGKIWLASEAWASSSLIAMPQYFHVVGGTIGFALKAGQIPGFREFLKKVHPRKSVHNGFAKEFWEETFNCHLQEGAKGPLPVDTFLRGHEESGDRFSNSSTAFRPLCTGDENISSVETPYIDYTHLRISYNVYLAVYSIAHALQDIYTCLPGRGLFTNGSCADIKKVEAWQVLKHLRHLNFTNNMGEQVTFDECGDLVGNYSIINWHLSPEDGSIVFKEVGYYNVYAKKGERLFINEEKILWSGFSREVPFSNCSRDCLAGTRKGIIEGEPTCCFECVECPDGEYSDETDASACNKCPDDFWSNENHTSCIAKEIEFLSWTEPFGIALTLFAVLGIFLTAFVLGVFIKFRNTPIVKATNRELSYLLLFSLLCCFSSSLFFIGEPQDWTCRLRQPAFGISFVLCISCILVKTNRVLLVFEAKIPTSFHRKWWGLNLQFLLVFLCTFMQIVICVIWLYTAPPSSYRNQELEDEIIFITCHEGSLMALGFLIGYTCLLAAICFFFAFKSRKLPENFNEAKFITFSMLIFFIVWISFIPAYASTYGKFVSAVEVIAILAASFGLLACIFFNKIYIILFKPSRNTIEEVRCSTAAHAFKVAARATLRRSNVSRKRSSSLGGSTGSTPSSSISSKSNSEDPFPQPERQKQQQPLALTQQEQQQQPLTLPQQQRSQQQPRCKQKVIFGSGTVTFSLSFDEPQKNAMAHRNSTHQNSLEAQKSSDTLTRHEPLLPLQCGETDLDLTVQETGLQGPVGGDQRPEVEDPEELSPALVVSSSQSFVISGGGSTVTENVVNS

[3] = target: T2, parathyroid cell Ca^2+ receptor (Bos taurus, UniProt P35384); format: cell-based, bovine; conditions: for effect on [Ca2+]i: tested at concentrations of 100 to 300 µM
T2 sequence (P35384 20-1085): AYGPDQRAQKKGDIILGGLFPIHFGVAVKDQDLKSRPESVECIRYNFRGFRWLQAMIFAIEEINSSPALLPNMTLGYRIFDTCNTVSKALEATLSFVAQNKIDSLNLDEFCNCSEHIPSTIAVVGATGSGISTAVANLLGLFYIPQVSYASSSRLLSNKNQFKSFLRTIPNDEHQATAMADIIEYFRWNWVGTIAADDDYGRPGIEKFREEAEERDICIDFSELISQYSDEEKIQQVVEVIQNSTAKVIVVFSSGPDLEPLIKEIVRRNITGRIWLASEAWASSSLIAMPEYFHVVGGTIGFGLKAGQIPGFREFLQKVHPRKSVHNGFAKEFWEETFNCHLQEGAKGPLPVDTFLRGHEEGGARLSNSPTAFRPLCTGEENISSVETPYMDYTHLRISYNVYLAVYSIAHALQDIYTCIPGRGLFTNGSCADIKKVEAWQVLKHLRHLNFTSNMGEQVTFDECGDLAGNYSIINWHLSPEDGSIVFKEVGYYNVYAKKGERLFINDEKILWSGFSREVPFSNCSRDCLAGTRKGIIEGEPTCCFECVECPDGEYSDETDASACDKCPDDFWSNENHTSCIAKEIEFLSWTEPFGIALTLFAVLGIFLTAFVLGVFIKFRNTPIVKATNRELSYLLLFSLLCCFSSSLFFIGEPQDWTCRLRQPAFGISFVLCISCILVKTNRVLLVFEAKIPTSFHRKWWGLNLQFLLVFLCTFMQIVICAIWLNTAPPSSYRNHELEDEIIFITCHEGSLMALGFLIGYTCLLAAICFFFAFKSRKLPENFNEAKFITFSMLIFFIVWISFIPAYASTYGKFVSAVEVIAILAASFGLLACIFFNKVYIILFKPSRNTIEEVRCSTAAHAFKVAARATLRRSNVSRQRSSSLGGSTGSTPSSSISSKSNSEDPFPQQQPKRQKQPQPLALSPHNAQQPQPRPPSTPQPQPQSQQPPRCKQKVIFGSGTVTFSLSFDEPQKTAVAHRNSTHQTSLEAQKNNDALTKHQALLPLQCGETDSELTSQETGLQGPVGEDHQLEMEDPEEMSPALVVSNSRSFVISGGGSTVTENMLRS

[4] = target: T3, parathyroid cell Ca^2+ receptor (Homo sapiens, UniProt P41180); test: [Ca2+]i (fura-2) in human parathyroid cells; format: cell-based; conditions: human parathyroid cells (adenoma)
T3 construct: Dissociated parathyroid cells were prepared from a parathyroid adenoma obtained by surgery from a patient with primary hyperparathyroidism; endogenous in cells; host or cells: primary human parathyroid cells from adenomatous or hyperplastic glands
T3 sequence (P41180 20-1078): T1 sequence (P41180 20-1078)
Method: Human parathyroid glands, obtained from patients undergoing surgical removal of parathyroid tissue for primary or uremic hyperparathyroidism (HPT), were treated similarly to bovine tissue. Glands were trimmed of excess fat and connective tissue and then minced with a fine scissors into approximate cubes of 2-3 mm. Dissociated parathyroid cells were prepared by collagenase digestion. Dissociated cells were then purified by centrifugation in Percoll buffer. The resultant parathyroid cell preparation was essentially devoid of red blood cells, adipocytes, and capillary tissue as assessed by phase contrast microscopy and Sudan black B staining. Dissociated and purified parathyroid cells were present as small clusters containing 5 to 20 cells.
The cells were then pelleted, resuspended in the same buffer lacking the ester, and incubated a further 15 min at 37°C. The cells were subsequently washed twice with PCB containing 0.5 mM CaCl2 and 0.5% BSA and maintained at room temperature (about 20°C). Immediately before use, the cells were diluted five-fold with prewarmed 0.5 mM CaCl2-PCB to obtain a final BSA concentration of 0.1%. The concentration of cells in the cuvette used for fluorescence recording was 1-2 x 10^6/ml.
The fluorescence of indicator-loaded cells was measured at 37°C in a spectrofluorimeter (Biomedical Instrumentation Group, University of Pennsylvania, Philadelphia, PA) equipped with a thermostated cuvette holder-and magnetic stirrer using excitation and emission wavelengths of 340 and 510 nm, respectively. […] Leakage of dye is dependent on temperature and most occurs within the first 2 min after warming the cells in the cuvette; dye leakage increases only very slowly thereafter. To correct the calibration for dye leakage, cells were placed in the cuvette and stirred at 37°C for 2-3 min. The cell suspension was then removed, the cells pelleted, and the supernatant returned to a clean cuvette. […] This estimate was subtracted from the apparent Fmin.

[5] = Serum or whole blood ionized Ca2+ and PTH in rats in vivo; design: species or system Sprague-Dawley rats
From the text: Male Sprague-Dawley rates (200 g) were maintained on a low calcium diet for one week prior to receiving test substance or vehicle as control. Blood was collected from the tail vein three hours after the intra-peritoneal administration of NPS 467. […]

[6] = Table 6, rat osteoclasts, indo-1, inactive = no increase in cytosolic Ca2+ at 1-5 mM
[7] = read-out: EC50 for the mobilization of intracellular Ca2+, […]
[8] = Table 1, mobilization of intracellular Ca2+ in parathyroid cells, read-out: EC50

## NCCCNCCCCNCCCNCCCNCCCNC(=O)Cc1c[nH]c2ccccc12 [NPS 019]
[1]; [6]
  EC50: > 300 µM

## COc1ccc(CCN(C)CCCC(C#N)(c2ccc(OC)c(OC)c2)C(C)C)cc1OC (centres unmarked) [verapamil]
[1]
  increase in [Ca2+]i in osteoclasts: none of these caused any large increase in [Ca^2+]i
[1]; verapamil 100 µM
  increase in [Ca2+]i: no detectable increase in [Ca^2+]i

## NCCNCCNCCNCCN [tetraethylenepentamine]
[2]
  Net (+) Charge: +5

## NCCNCCNCCN [triethylenetetramine]
[2]
  Net (+) Charge: +4

## N^1,N^1,N^5,N^14,N^14-tetrakis-(3-aminopropyl)spermine [NPS 382]
Ca^2+ receptor
  mobilization of intracellular Ca2+ in oocytes expressing the Ca2+ receptor: effective
[2]
  Net (+) Charge: +8

## NCCCN(CCCN)CCCN(CCCN)CCCCN(CCCN)CCCN(CCCN)CCCN [NPS 381, N^1,N^1,N^5,N^10,N^14,N^14-hexakis-(3-aminopropyl) spermine]
[2]
  Net (+) Charge: +10

## NCCCCNCCCN [spermidine]
[3]
  EC50: 2000 µM
[1]; concentration of 1 mM
  increase in [Ca2+]i, % of that evoked by a maximal concentration of extracellular Ca2+: about 10%
[1]
  increase in [Ca2+]i in osteoclasts: none of these caused any large increase in [Ca^2+]i
[2]
  Net (+) Charge: +3

## COc1cccc(C(C)NCCCc2ccccc2Cl)c1 (racemic) [NPS 568]
[3]; [7]
  EC50: < 5 µM

## [H]/N=C(/N)N[C@H]1[C@H](O)[C@@H](O)[C@H](O[C@@H]2O[C@@H](C)[C@](O)(C=O)[C@H]2O[C@@H]2O[C@@H](CO)[C@H](O)[C@@H](O)[C@@H]2NC)[C@@H](N/C(N)=N\[H])[C@@H]1O [streptomycin]
[3]; [8]
  EC50: 600 µM
[3]; […]
  EC50: 600 µM
[2]
  Net (+) Charge: +3

## C1CNCCNCCNCCNCCNCCN1 [hexacyclen, 1,4,7,10,13,16-hexaaza-cyclooctadecane]
[3]
  fold increase in potency over pentaethylenehexamine (straight chain analog): 25 fold
[3]; [8]
  EC50: 20 µM
[3]; […]
  EC50: 20 µM
Ca^2+ receptor
  mobilization of intracellular Ca2+ in oocytes expressing the Ca2+ receptor: caused the mobilization of intracellular Ca^2+
[2]
  Net (+) Charge: +6

## NCCCN1CCCN(CCCN)CCN(CCCN)CCCN(CCCN)CC1 [NPS 383]
[2]
  Net (+) Charge: +8

## NC(=O)C[C@H](NC(=O)Cc1c[nH]c2cccc(O)c12)C(=O)NCCCCCNCCCNCCCNC(=O)[C@@H](N)CCCN=C(N)N [Argiotoxin 659]
[3]
  effect on [Ca2+]i: evoked transient increases in [Ca^2+]i
[2]
  Net (+) Charge: +4

## NCCCNCCCCNCCCNCCCN(O)CCCNC(=O)Cc1c[nH]c2ccccc12 [NPS 017]
[1]; [6]
  EC50(µM) OSTEOCLAST: inactive

## gentamicin
[2]
  Net (+) Charge: +5

## NC[C@H]1O[C@H](O[C@H]2[C@H](O)[C@@H](O[C@H]3O[C@H](CO)[C@@H](O)[C@H](N)[C@H]3O)[C@H](N)C[C@@H]2N)[C@H](N)[C@@H](O)[C@@H]1O [bekanamycin]
[3]; [8]
  EC50: 200 µM
[3]; […]
  EC50: 200 µM
[2]
  Net (+) Charge: +5

## NCCCCCCCCCCCCN [1,12-diaminododecane (DADD), 1,12-diaminododecane]
[3]; read-out: EC50
  EC50: 3000 µM
[2]
  Net (+) Charge: +2

## CCC[C@@H]1C[C@@H](C(=O)N[C@@H]([C@H]2O[C@H](SC)[C@H](O)[C@@H](O)[C@H]2O)[C@@H](C)O)N(C)C1 [lincomycin]
[3]; tested at a concentration of 500 µM
  effect on cytosolic Ca2+ transients: without effect

## COc1cccc([C@@H](C)NCCCc2ccccc2Cl)c1 [NPS R-568]
[3]; Table 6, […], fura-2, inactive = no increase in cytosolic Ca2+ at 1-5 mM, read-out: EC50(µM) PARATHYROID
  EC50: 0.6 µM
[4]
  EC50: 3 µM

## COc1cccc(C(C)NCCCc2ccccc2)c1 (racemic) [NPS 467]
[3]; [7]
  EC50: < 5 µM
[5]; Fig. 40 (25 mg/kg)
  time course of the hypocalcemic effect: maximal within three hours and returned toward control levels after 24 hours
[5]; any of the doses examined
  serum albumin or phosphate levels: no change in serum albumin or phosphate levels
[5]; low calcium diet, three hours after intra-peritoneal administration, Fig. 38
  serum or whole blood Ca2+: dose-dependent reduction in serum or whole blood Ca^2+
[5]; oral, dose-response curve, Fig. 44
  serum ionized calcium after oral administration: lowers serum ionized calcium in rats when administered orally
[5]; preliminary studies, doses effective in lowering blood Ca2+, Fig. 39
  circulating levels of PTH: dose-dependent reduction in circulating levels of PTH

## NC(=O)C[C@H](NC(=O)Cc1ccc(O)cc1O)C(=O)NCCCCCNCCCNCCCNC(=O)[C@@H](N)CCCN=C(N)N [argiotoxin 636]
[3]
  effect on [Ca2+]i: without effect
